For 1 molecule, inhibition results are on record in article PMC11233931, “Remodeling tumor‐associated macrophage for anti‐cancer effects by rational design of irreversible inhibition of mitogen‐activated protein kinase‐activated protein kinase 2” (MedComm, 2024).

Common to all, as to assay: Eurofins kinase selectivity profile against 380 other human recombinant kinases (Table S2)
What all share (type): biochemical

The target in assay [1] is T1, 380 human recombinant protein kinases (Homo sapiens, UniProt O75582).
T1 construct: purchased Eurofins (Celle Lévescault)
As to conditions: MSK1(h), read-out: Inhibition rate. A digest of the protocol: (§1)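 Outsourced panel: 380 human recombinant kinases; inhibitor tested at various concentrations; purpose: MK2 selectivity check.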

Assay [2] addresses T2, 380 human recombinant protein kinases (Homo sapiens, UniProt Q9UL54).
T2 construct: purchased Eurofins (Celle Lévescault)
T2 sequence (Q9UL54 1-1235): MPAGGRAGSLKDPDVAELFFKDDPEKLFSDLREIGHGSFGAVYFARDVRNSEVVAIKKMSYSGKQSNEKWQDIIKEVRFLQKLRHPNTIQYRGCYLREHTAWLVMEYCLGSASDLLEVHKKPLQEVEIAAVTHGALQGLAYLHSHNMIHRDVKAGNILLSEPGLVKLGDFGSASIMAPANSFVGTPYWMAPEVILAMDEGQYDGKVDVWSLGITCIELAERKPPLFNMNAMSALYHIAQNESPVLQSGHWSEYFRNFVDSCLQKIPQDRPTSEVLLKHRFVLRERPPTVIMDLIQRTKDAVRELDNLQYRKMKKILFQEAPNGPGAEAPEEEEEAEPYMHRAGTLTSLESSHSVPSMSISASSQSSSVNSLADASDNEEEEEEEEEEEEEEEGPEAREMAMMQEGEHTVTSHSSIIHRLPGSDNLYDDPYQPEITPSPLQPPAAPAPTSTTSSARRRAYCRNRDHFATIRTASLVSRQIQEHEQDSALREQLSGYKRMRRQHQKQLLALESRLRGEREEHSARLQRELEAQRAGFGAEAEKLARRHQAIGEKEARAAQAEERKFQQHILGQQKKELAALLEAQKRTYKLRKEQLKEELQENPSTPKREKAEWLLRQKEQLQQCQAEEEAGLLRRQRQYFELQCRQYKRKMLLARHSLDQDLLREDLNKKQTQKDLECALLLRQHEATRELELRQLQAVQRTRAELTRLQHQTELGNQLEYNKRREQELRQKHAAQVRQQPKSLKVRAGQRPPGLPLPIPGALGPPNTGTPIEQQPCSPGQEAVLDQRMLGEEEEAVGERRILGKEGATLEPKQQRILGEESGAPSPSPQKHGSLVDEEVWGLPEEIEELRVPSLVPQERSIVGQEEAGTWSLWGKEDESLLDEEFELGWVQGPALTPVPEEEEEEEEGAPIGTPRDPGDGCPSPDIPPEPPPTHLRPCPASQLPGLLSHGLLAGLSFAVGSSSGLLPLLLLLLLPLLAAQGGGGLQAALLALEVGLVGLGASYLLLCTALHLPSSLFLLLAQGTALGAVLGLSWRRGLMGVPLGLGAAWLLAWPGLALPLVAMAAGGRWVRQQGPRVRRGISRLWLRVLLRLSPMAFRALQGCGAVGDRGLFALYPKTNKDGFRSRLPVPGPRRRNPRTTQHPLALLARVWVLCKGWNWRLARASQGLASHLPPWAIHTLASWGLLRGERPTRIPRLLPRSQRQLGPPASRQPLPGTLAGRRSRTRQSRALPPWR
As to conditions: TAO2(h), read-out: Inhibition rate (%). A digest of the protocol: as §1

Assay [3] addresses T3, 380 human recombinant protein kinases (Homo sapiens, UniProt Q96PN8).
T3 construct: purchased Eurofins (Celle Lévescault)
T3 sequence (Q96PN8 1-268): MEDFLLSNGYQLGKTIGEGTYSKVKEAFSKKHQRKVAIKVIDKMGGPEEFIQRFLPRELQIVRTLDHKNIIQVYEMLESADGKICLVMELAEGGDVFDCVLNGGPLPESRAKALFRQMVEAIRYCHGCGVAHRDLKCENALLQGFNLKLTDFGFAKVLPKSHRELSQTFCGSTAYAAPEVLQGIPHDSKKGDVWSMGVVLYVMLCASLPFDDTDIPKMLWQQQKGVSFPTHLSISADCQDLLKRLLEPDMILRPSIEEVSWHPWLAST
As to conditions: TSSK3(h), read-out: Inhibition rate (%). Put shortly:
as §1

The target of assay [4] is T4, 380 human recombinant protein kinases (Homo sapiens, UniProt P48729).
T4 construct: purchased Eurofins (Celle Lévescault)
As to conditions: CK1α(h), read-out: Inhibition rate. Put shortly:
as §1

In assay [5] the target is T5, 380 human recombinant protein kinases (Homo sapiens, UniProt Q9H2G2).
T5 construct: purchased Eurofins (Celle Lévescault)
To be noted: SLK(h), read-out: Inhibition rate (%). Put shortly: as §1

Assay [6] addresses T6, 380 human recombinant protein kinases (Homo sapiens, UniProt P00533).
T6 construct: purchased Eurofins (Celle Lévescault)
As to conditions: EGFR(h), read-out: Inhibition rate. A digest of the protocol: as §1

Assay [7] deals with T7, 380 human recombinant protein kinases (Homo sapiens, UniProt Q05397).
T7 construct: purchased Eurofins (Celle Lévescault)
As to conditions: FAK(h), read-out: Inhibition rate. Put shortly: as §1

Assay [8] addresses T8, 380 human recombinant protein kinases (Homo sapiens, UniProt P06241).
T8 construct: purchased Eurofins (Celle Lévescault)
As to conditions: Fyn(h), read-out: Inhibition rate. Put shortly: as §1

T5 sequence (Q9H2G2 whole entry): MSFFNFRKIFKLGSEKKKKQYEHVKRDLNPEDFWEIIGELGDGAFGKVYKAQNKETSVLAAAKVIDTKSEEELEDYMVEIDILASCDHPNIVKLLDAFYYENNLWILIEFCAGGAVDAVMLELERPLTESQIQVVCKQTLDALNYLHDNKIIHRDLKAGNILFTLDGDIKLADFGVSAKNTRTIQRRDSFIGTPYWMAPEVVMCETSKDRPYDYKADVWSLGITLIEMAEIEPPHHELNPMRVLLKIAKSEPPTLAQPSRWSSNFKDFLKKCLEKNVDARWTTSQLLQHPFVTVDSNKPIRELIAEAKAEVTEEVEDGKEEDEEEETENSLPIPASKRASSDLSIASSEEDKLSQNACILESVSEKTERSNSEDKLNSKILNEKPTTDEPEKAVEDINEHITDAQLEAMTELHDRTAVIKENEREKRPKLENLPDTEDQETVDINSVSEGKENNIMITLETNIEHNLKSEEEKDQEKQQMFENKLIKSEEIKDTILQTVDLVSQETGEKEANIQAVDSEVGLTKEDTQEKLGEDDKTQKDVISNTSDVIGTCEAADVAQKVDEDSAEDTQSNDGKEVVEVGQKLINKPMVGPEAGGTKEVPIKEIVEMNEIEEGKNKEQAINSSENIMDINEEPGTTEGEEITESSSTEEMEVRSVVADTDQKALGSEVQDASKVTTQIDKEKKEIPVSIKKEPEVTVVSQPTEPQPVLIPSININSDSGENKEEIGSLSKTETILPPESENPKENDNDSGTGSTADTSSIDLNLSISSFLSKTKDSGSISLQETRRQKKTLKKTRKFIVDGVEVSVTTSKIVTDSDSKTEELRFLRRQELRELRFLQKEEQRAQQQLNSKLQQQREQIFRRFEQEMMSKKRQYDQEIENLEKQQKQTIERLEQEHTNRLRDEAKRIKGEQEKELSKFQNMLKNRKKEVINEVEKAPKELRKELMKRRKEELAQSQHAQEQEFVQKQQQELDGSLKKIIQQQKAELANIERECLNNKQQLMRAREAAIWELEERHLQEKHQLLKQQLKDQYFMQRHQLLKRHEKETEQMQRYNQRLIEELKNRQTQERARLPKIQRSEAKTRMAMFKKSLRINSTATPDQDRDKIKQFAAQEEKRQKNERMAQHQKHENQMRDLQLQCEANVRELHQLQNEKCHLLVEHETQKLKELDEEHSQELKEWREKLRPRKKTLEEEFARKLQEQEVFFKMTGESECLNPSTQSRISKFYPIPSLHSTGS
T6 sequence (P00533 25-1210): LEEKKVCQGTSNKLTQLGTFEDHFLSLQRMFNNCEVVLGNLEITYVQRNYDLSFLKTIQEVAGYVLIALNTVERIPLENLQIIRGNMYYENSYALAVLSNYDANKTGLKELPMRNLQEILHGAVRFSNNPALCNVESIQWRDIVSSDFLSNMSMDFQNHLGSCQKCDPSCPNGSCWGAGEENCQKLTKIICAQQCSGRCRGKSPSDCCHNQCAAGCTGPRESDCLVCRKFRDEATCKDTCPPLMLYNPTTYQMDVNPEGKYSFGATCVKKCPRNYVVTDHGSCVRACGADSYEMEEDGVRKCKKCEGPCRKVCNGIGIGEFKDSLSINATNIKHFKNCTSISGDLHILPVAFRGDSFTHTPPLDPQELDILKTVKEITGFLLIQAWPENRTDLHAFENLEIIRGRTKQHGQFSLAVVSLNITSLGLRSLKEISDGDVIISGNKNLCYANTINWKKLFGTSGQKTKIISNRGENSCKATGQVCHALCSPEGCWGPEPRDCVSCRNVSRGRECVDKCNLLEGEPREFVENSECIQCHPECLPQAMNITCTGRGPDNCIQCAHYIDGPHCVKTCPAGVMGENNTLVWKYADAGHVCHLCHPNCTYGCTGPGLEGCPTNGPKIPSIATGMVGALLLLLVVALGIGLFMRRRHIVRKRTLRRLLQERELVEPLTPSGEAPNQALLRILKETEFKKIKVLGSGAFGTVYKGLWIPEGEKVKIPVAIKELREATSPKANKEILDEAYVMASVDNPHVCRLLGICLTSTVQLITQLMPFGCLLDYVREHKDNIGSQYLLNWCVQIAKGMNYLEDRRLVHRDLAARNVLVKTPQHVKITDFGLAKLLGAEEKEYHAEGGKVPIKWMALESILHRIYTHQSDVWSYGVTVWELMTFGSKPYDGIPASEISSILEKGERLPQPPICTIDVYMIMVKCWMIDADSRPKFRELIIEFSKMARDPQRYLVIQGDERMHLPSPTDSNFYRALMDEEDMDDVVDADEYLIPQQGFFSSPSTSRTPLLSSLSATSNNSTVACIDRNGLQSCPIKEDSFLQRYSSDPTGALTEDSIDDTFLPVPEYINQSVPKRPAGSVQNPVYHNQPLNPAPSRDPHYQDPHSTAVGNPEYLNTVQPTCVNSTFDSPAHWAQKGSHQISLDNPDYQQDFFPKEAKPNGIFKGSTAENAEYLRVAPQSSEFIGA
T4 sequence (P48729 whole entry): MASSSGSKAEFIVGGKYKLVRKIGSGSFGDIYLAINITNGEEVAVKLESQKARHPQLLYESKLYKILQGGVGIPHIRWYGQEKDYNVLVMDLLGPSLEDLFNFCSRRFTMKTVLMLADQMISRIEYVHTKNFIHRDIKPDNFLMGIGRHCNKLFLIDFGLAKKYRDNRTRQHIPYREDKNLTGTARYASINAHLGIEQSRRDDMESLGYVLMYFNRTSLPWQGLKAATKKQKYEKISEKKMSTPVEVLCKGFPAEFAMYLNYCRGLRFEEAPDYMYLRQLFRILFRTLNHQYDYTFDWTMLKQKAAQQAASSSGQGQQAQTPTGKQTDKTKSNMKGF
T1 sequence (O75582 whole entry): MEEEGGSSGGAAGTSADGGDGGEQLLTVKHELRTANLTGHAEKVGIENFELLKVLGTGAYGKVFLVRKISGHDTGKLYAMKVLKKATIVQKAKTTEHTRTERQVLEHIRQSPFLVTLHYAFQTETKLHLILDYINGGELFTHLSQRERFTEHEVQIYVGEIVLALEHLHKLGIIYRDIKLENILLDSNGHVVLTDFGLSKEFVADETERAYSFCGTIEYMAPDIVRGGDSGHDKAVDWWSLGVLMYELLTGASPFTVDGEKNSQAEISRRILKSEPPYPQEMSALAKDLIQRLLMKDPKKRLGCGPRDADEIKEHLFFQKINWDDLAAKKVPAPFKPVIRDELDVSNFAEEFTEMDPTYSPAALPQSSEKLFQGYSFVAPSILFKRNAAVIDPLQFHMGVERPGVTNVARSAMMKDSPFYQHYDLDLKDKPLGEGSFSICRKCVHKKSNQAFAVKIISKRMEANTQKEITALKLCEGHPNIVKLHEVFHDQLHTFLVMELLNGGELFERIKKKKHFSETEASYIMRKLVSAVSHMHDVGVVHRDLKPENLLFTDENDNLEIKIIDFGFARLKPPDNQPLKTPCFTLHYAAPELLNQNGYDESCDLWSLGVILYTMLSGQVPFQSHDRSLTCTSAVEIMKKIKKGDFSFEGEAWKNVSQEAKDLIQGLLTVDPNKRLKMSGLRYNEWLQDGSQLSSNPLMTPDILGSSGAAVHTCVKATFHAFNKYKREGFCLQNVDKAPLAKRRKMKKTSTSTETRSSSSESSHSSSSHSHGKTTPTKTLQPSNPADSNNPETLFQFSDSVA
T7 sequence (Q05397 whole entry): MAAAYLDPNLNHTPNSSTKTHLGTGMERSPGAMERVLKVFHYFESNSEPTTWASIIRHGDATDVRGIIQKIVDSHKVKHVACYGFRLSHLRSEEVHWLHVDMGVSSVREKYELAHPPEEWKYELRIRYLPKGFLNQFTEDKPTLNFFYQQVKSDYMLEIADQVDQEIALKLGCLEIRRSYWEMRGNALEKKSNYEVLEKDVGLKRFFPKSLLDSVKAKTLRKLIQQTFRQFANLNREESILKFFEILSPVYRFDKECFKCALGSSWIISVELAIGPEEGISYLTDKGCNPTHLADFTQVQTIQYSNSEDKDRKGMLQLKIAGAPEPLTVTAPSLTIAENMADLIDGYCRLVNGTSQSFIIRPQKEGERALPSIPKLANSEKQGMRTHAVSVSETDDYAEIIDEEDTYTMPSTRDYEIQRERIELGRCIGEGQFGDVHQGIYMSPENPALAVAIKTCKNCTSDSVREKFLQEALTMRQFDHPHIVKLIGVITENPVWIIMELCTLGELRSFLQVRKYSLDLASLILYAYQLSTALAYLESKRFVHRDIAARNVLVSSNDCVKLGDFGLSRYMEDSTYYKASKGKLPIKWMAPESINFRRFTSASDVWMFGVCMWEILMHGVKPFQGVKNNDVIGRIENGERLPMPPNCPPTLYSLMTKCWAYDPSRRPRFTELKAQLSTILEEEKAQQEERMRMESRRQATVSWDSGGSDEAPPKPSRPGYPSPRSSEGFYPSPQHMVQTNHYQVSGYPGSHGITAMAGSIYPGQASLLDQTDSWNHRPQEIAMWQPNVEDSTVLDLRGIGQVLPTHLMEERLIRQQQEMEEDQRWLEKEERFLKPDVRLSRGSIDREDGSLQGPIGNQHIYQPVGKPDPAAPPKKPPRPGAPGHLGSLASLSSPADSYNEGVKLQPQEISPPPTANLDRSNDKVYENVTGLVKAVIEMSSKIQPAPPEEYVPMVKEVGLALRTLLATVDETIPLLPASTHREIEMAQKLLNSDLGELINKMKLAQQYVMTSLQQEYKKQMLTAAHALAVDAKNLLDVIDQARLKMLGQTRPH

The inhibition is the relative decrease from the control value, in per cent. In the case of `C=CC(=O)Nc1cc(-c2cc(-c3cc4c([nH]3)CCNC4=O)ccn2)ccc1OC(F)(F)F` [compound 11], the inhibition at 0.01 µM is -11% in assay [1] (10 nM); -7% in assay [2] (10 nM); 0% in assay [3] (10 nM); 15% in assay [4] (10 nM); 1% in assay [5] (10 nM); 3% in assay [6] (10 nM). Moreover, the results for the inhibition at 0.01 µM in assay [7] (10 nM) and in assay [8] (10 nM) were -10% and 0%, respectively. Besides, the inhibition at 0.1 µM is -12% in assay [1] (100 nM); 1% in assay [2] (100 nM); 5% in assay [3] (100 nM); 30% in assay [4] (100 nM); 4% in assay [5] (100 nM); -20% in assay [6] (100 nM). In addition, the inhibition at 0.1 µM in assay [7] (100 nM) is -1%; in assay [8] (100 nM) it was 0%. Moreover, the inhibition at 1 µM is -11% in assay [1] (1000 nM); 0% in assay [2] (1000 nM); -2% in assay [3] (1000 nM); 70% in assay [4] (1000 nM); 4% in assay [5] (1000 nM); -6% in assay [6] (1000 nM). For the same molecule, the inhibition at 1 µM in assay [7] (1000 nM) was determined as 1%; in assay [8] (1000 nM) it was 3%.
